{"source": "DBAASP", "experiment_in_all_cases": "≥ marks a high value that may be exact or a test limit, other limits are often not marked, values filed in µg/mL are converted to µM", "key": {"[1]": {"tested_on": "Candida albicans ATCC 2002"}, "[2]": {"tested_on": "Candida albicans ATCC 90028"}, "[3]": {"tested_on": "Candida parapsilosis ATCC 22019"}, "[4]": {"tested_on": "Enterobacter cloacae ATCC 13047"}, "[5]": {"tested_on": "Enterococcus faecalis ATCC 29212"}, "[6]": {"tested_on": "Escherichia coli ATCC 25922"}, "[7]": {"tested_on": "Escherichia coli IS117#"}, "[8]": {"tested_on": "Escherichia coli IS37#"}, "[9]": {"tested_on": "Klebsiella pneumoniae ATCC 700603"}, "[10]": {"tested_on": "Klebsiella pneumoniae IS59#"}, "[11]": {"tested_on": "Pseudomonas aeruginosa ATCC 27853"}, "[12]": {"tested_on": "Pseudomonas aeruginosa CMCCB 1010"}, "[13]": {"tested_on": "Pseudomonas aeruginosa IS350#"}, "[14]": {"tested_on": "Shigella dysenteriae"}, "[15]": {"tested_on": "Staphylococcus aureus ATCC 25923"}, "[16]": {"tested_on": "Candida albicans"}, "[17]": {"tested_on": "Candida glabrata"}, "[18]": {"tested_on": "Mycobacterium tuberculosis H37Rv"}, "[19]": {"tested_on": "Mycobacterium tuberculosis"}, "[20]": {"tested_on": "Pseudomonas aeruginosa ATCC 9027"}, "[21]": {"tested_on": "Streptococcus agalactiae"}, "[22]": {"tested_on": "Aeromonas salmonicida ATCC 33658"}, "[23]": {"tested_on": "Campylobacter jejuni NCTC 11168"}, "[24]": {"tested_on": "Enterococcus faecalis VR"}, "[25]": {"tested_on": "Enterococcus faecalis"}, "[26]": {"tested_on": "Escherichia coli ATCC 25922 ΔrfaC"}, "[27]": {"tested_on": "Escherichia coli ATCC BAA-2523"}, "[28]": {"tested_on": "Escherichia coli BW25113 ΔrfaC"}, "[29]": {"tested_on": "Escherichia coli BW25113"}, "[30]": {"tested_on": "Flavobacterium psychrophilum 1947"}, "[31]": {"tested_on": "Listeria monocytogenes N22-2"}, "[32]": {"tested_on": "Pseudomonas aeruginosa"}, "[33]": {"tested_on": "Salmonella enterica subsp. enterica serovar Typhimurium LT2"}, "[34]": {"tested_on": "Staphylococcus aureus ATCC 29213"}, "[35]": {"tested_on": "Staphylococcus aureus ATCC 43300"}, "[36]": {"tested_on": "Yersinia ruckeri 392/2003"}, "[37]": {"tested_on": "Bacillus subtilis KCTC 1918"}, "[38]": {"tested_on": "Candida albicans TIMM 1768"}, "[39]": {"tested_on": "Pseudomonas aeruginosa KCTC 1637"}, "[40]": {"tested_on": "Salmonella typhimurium KCTC 1926"}, "[41]": {"tested_on": "Staphylococcus epidermidis KCTC 3096"}, "[42]": {"tested_on": "Trichosporon beigelii KCTC 7707"}, "[43]": {"tested_on": "Enterococcus faecalis V583"}, "[44]": {"tested_on": "Staphylococcus aureus USA 100"}}, "note": "Values joined by “and” are separate entries in the source; they are usually repeats but may differ in a detail not shown here. Identical values can stand only once.", "data": [{"smiles": "CC[C@H](C)[C@@H]1NC(=O)[C@H](C)NC(=O)[C@@H](NC(=O)[C@H](Cc2ccccc2)NC(=O)[C@@H](NC(=O)[C@H](C)NC(=O)[C@@H]2CCCN2C(=O)CNC(=O)[C@@H](NC(=O)[C@H](CCCCN)NC(=O)[C@H](C)NC(=O)[C@H](C)NC(=O)[C@@H](NC(=O)[C@H](CCCN=C(N)N)NC(=O)[C@H](CC(C)C)NC(=O)[C@@H](NC(=O)[C@H](C)NC(=O)[C@@H]2CCCN2C(=O)[C@H](CC(C)C)NC(=O)[C@@H](N)Cc2ccccc2)C(C)C)C(C)C)C(C)C)C(C)C)CSSC[C@@H](C(=O)O)NC(=O)[C@H](CCCCN)NC(=O)[C@H](CCC(N)=O)NC(=O)[C@H]([C@@H](C)O)NC1=O", "note": "[FLPAVLRVAAKVGPAVFCAITQKC]", "values": [{"measurement": "MIC", "setting": "[1]", "result": 0.2, "unit": "µM"}, {"measurement": "MIC", "setting": "[2]", "result": 4, "unit": "µM"}, {"measurement": "MIC", "setting": "[3]", "result": 2, "unit": "µM"}, {"measurement": "MIC", "setting": "[4]", "result": 2, "unit": "µM"}, {"measurement": "MIC", "setting": "[5]", "result": 4, "unit": "µM"}, {"measurement": "MIC", "setting": "[6]", "result": 0.999, "unit": "µM"}, {"measurement": "MIC", "setting": "[7]", "result": 20, "unit": "µM"}, {"measurement": "MIC", "setting": "[8]", "result": 20, "unit": "µM"}, {"measurement": "MIC", "setting": "[9]", "result": 4, "unit": "µM"}, {"measurement": "MIC", "setting": "[10]", "result": 2, "unit": "µM"}, {"measurement": "MIC", "setting": "[11]", "result": 2, "unit": "µM"}, {"measurement": "MIC", "setting": "[12]", "result": 4, "unit": "µM"}, {"measurement": "MIC", "setting": "[13]", "result": 4, "unit": "µM"}, {"measurement": "MIC", "setting": "[14]", "result": 4, "unit": "µM"}, {"measurement": "MIC", "setting": "[15]", "result": 0.999, "unit": "µM"}]}, {"smiles": "CC[C@H](C)[C@H](NC(=O)[C@H](CC(C)C)NC(=O)[C@H](CO)NC(=O)[C@@H]1CCCN1C(=O)[C@@H](NC(=O)[C@H](C)NC(=O)[C@H](CCCCN)NC(=O)[C@H](CCSC)NC(=O)[C@H](C)NC(=O)[C@H](CC(C)C)NC(=O)[C@H](CCCCN)NC(=O)CNC(=O)[C@H](CC(C)C)NC(=O)[C@H](Cc1ccccc1)NC(=O)CNC(=O)[C@H](Cc1c[nH]c2ccccc12)NC(=O)[C@@H](N)Cc1ccccc1)C(C)C)C(=O)NCC(=O)NCC(=O)N[C@@H](CC(N)=O)C(=O)N[C@@H](CCCCN)C(=O)N[C@@H](CCCCN)C(=O)O", "note": "[FWGFLGKLAMKAVPSLIGGNKK]", "values": [{"measurement": "MIC", "setting": "[16]", "result": 3.12, "unit": "µM"}, {"measurement": "MIC", "setting": "[17]", "result": 25, "unit": "µM"}, {"measurement": "MIC", "setting": "[6]", "result": 24, "unit": "µM"}, {"measurement": "MIC", "setting": "[18]", "result": 13.6, "unit": "µM"}, {"measurement": "MIC", "setting": "[19]", "result": 8.5, "unit": "µM"}, {"measurement": "MIC", "setting": "[20]", "result": 5, "unit": "µM"}, {"measurement": "MIC", "setting": "[15]", "result": 5, "unit": "µM"}, {"measurement": "MIC", "setting": "[21]", "result": 10, "unit": "µM"}]}, {"smiles": "CC[C@H](C)[C@H](NC(=O)[C@H](CC(C)C)NC(=O)[C@H](CCCCN)NC(=O)[C@H](CC(C)C)NC(=O)[C@H](CC(C)C)NC(=O)[C@H](CCCCN)NC(=O)[C@H](CCCN=C(N)N)NC(=O)[C@H](Cc1ccccc1)NC(=O)[C@H](CC(C)C)NC(=O)[C@H](CCCCN)NC(=O)[C@H](CCCN=C(N)N)NC(=O)[C@H](CC(C)C)NC(=O)[C@@H](N)CCCCN)C(=O)N[C@@H](CCCN=C(N)N)C(=O)N[C@@H](CCCCN)C(=O)N[C@@H](CC(C)C)C(=O)N[C@@H](CC(C)C)C(=O)N[C@@H](CCCN=C(N)N)C(=O)O", "note": "[KLRKLFRKLLKLIRKLLR]", "values": [{"measurement": "MIC", "setting": "[22]", "result": 19.4, "unit": "µM"}, {"measurement": "MIC", "setting": "[23]", "result": 0.856, "unit": "µM"}, {"measurement": "MIC", "setting": "[5]", "result": 4.84, "unit": "µM"}, {"measurement": "MIC", "setting": "[24]", "result": 16, "unit": "µM"}, {"measurement": "MIC", "setting": "[25]", "result": 16, "unit": "µM"}, {"measurement": "MIC", "setting": "[26]", "result": 6.85, "unit": "µM"}, {"measurement": "MIC", "setting": "[6]", "result": "9.69 µM and 16 µM"}, {"measurement": "MIC", "setting": "[27]", "result": "≥ 32", "unit": "µM"}, {"measurement": "MIC", "setting": "[28]", "result": 3.42, "unit": "µM"}, {"measurement": "MIC", "setting": "[29]", "result": 6.85, "unit": "µM"}, {"measurement": "MIC", "setting": "[30]", "result": "≥ 110", "unit": "µM"}, {"measurement": "MIC", "setting": "[31]", "result": 6.85, "unit": "µM"}, {"measurement": "MIC", "setting": "[11]", "result": "9.69 µM and 16 µM"}, {"measurement": "MIC", "setting": "[32]", "result": 16, "unit": "µM"}, {"measurement": "MIC", "setting": "[33]", "result": 6.85, "unit": "µM"}, {"measurement": "MIC", "setting": "[34]", "result": "6.85 µM and 16 µM"}, {"measurement": "MIC", "setting": "[35]", "result": 16, "unit": "µM"}, {"measurement": "MIC", "setting": "[36]", "result": 4.84, "unit": "µM"}]}, {"smiles": "CC[C@H](C)[C@H](NC(=O)CNC(=O)[C@@H](NC(=O)[C@H](CCCCN)NC(=O)[C@H](CCCCN)NC(=O)[C@H](Cc1ccccc1)NC(=O)[C@H](CC(C)C)NC(=O)[C@H](CCCCN)NC(=O)[C@H](Cc1c[nH]c2ccccc12)NC(=O)[C@@H](N)CCCCN)[C@@H](C)CC)C(=O)NCC(=O)N[C@@H](CCCCN)C(=O)N[C@@H](Cc1ccccc1)C(=O)N[C@@H](CC(C)C)C(N)=O", "note": "[KWKLFKKIGIGKFL]", "values": [{"measurement": "MIC", "setting": "[37]", "result": 6.25, "unit": "µM"}, {"measurement": "MIC", "setting": "[38]", "result": 12.5, "unit": "µM"}, {"measurement": "MIC", "setting": "[39]", "result": 3.12, "unit": "µM"}, {"measurement": "MIC", "setting": "[40]", "result": 1.56, "unit": "µM"}, {"measurement": "MIC", "setting": "[41]", "result": 6.25, "unit": "µM"}, {"measurement": "MIC", "setting": "[42]", "result": 8.84, "unit": "µM"}]}, {"smiles": "CC(C)C[C@H](NC(=O)[C@H](CC(C)C)NC(=O)[C@@H](N)CC(C)C)C(=O)NCC(=O)N[C@@H](C)C(=O)N[C@@H](C)C(=O)N[C@H](C(=O)NCC(=O)O)[C@@H](C)O", "note": "[LLLGAATG]", "values": [{"measurement": "MIC", "setting": "[43]", "result": "≥ 86.7", "unit": "µM"}]}, {"smiles": "NC(=O)[C@H](CCCN=C(N)N)NC(=O)[C@H](CO)NC(=O)[C@H](CCCN=C(N)N)NC(=O)[C@@H](N)CO", "note": "[SRSR]", "values": [{"measurement": "MIC", "setting": "[44]", "result": "≥ 100", "unit": "µM"}]}]}
